This test deals with T1, human apical sodium-dependent bile acid transporter (hASBT) (Homo sapiens, UniProt Q12908).
T1 sequence (Q12908 1-348): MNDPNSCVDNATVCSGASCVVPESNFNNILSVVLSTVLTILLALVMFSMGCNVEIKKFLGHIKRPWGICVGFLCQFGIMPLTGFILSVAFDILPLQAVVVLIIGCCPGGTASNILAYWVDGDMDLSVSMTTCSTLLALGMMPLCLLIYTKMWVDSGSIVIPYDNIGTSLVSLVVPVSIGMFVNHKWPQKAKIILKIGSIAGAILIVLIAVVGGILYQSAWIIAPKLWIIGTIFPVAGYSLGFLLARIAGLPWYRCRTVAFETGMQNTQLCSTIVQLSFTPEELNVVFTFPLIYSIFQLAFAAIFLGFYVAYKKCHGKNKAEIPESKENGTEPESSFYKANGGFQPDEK
Kind of test: time-dependent inactivation of [3H]-TCA uptake after pre-incubation, hASBT-MDCK. The class given is cell-based.

Like-named read-outs stand apart in the source and are kept apart here.

In the case of `C[C@H](CCC(=O)O)[C@H]1CC[C@H]2[C@@H]3[C@H](O)C[C@@H]4C[C@@H](Cl)CC[C@]4(C)[C@H]3CC[C@]12C` [3β-Cl-CDCA, 3β-chloro-7α-hydroxy-5β-cholan-24-oic acid], the KI (inactivation) (read-out: 3β-Cl-CDCA) turned out to be 0.81 ± 0.19 µM.
Turning to `C[C@H](CCC(=O)O)[C@H]1CC[C@H]2[C@@H]3[C@H](OS(C)(=O)=O)C[C@@H]4C[C@H](O)CC[C@]4(C)[C@H]3CC[C@]12C` [7α-Ms-CDCA, 3α-hydroxy-7α-mesyloxy-5β-cholan-24-oic acid], the KI (inactivation) (read-out: 7α-Ms-CDCA) stood at 1.19 ± 0.06 µM.

(Values after paper PMC5252617 (Pharmaceutical research, 2012).)
